Assays:
[1] = target: T1, human DBP (vitamin D binding protein) (Homo sapiens, UniProt P02774); experiment: Relative affinity for purified human vitamin D-binding protein (hDBP); conditions: % of the activity of 1α,25-(OH)2D3 at 50% of its activity (B50)
T1 sequence (P02774 17-474): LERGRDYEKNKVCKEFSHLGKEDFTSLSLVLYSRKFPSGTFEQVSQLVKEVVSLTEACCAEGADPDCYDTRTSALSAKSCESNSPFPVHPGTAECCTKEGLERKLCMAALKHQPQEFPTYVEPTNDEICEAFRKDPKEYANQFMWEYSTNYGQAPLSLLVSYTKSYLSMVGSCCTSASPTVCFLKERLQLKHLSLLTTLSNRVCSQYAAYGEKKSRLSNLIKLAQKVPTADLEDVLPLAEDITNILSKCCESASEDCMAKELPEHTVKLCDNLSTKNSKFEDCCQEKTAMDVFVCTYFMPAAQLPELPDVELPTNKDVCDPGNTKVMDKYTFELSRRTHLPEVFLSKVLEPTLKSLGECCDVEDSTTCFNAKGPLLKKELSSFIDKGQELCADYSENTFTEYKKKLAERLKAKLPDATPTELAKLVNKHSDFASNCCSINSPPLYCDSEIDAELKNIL

[2] = system: vitamin D-deficient chicks; experiment: Calcemic effect in vitamin D-deficient chicks (serum calcium); type: in vivo, chick; conditions: % of the activity of 1α,25-(OH)2D3 at 50% of its activity (B50); vitamin D-deficient chicks injected 10 consecutive days
Description: The antirachitic activity of the analogues was tested in 3 weeks old vitamin D-deficient chicks injected for 10 consecutive days with 1α,25-(OH)2D3 or its analogues (22,23). Serum calcium (by atomic absorptiometry) and osteocalcin (by specific RIA), duodenal calbindin D-28K (by RIA) and bone calcium content were measured. The hypercalcemic effect of the most interesting anologues was also tested in vitamin D-replete normal NMRI mice by daily sc injection of 1α,25-(OH)2D3, its analogues or the solvent for 7 consecutive days, using serum, bone and urinary calcium excretion and serum osteocalcin (by specific mouse RIA) as parameters (40).

[3] = system: MG-63 cells; experiment: MG-63 osteosarcoma cells, osteocalcin secretion; type: cell-based; conditions: % of the activity of 1α,25-(OH)2D3 at 50% of its activity (B50); human osteosarcoma cells
Description: (§1) HL-60 cells were seeded at 1.2×10^5 cells/ml and 1α,25-(OH)2D3 or its anologs were added in ethanol (final concentration <0.2%) in RPMI 1640 medium supplemented with 10% heat-inactivated fetal calf serum (FCS) for 4 d at 37° C. Cells were then assayed for maturation by NBT reduction assay as described (22) using a hemacytometer, or for proliferation by cell counting and [^3H] thymidine incorporation. MG 63 cells, seeded at 5×10^3 cells/ml in 96 well flat bottomed culture plates (Falcon, Becton Dickinson, N.J.) in a volume of 0.2 ml of DMEM and 2% FCS, were incubated with 1α,25-(OH)2D3 or its analogues for 72 h. Osteocalcin was then measured in the culture medium using a homologous human osteocalcin RIA (39). Breast carcinoma cells (MCF-7 or GR) were grown in DMEM/nut.mix F-12 (HAM) medium supplemented with 10% FCS. Cells (5000/Well) were incubated during 24 h in 96 well tissue culture plates (Falcon 3072) followed by a 72 h incubation with/without 1α,25-(OH)2D3 or analogues. The cells were then incubated with [^3H]thymidine (1 μCi/well) for 4 h and harvested thereafter in NaOH (0.1 M) and the radioactivity counted. The protein content of the cells was measured by the Pierce BCA protein assay (Rockford, Ill.).

[4] = system: human normal keratinocytes; experiment: Human keratinocyte proliferation ([3H]thymidine incorporation); type: cell-based; conditions: % of the activity of 1α,25-(OH)2D3 at 50% of its activity (B50)
Description: to evaluate the effects on cell proliferation of non-malignant cells and especially to evaluate their potential for use for dermatological disorders, the new compounds were tested in cultures of human normal keratinocytes.
Human skin keratinocytes were isolated and cultured using a modification of the method of Kitano and Okada (38).
Briefly, the skin from biopsies of patients with breast tumors, was cutted into pieces measuring 3-5 mm and soaked overnight at 4° C. in a solution of dispase (20 Boehringer units/ml). The epidermis was peeled from the dermis, washed with calcium- and magnesium-free phosphate buffered saline and incubated and shaked in a 0.25% trypsin solution for 10 min at room temperature. The reaction was then stopped by addition of PBS containing 10% FCS. The cells were collected after centrifugation at 4° C. for 10 min at 800 rpm. After an additional washing with PBS, the pellet was suspended in culture medium into 25 cm^2 primaria flasks from Becton Dickinson. The keratinocytes were cultivated at 37° C. in an atmosphere of 5% CO2 in air. A few hours later, the medium was replaced by new one. The medium [Keratinocyte Medium from Gibco containing Epidermal Growth Factor (5 ng/ml), Bovine Pituitary Extract (35-50 μg/ml) and antibiotics] was renewed every other day until confluency.
Keratinocytes were cultured in 96-well plate and, after 24 hours, were treated with various concentrations of vitamin D analogues, followed by pulse labelling with 1 μCi of [^3H]thymidine for 3 hours. Cultures were washed 3 times with PBS and twice with 10% (v/v) ice cold trichloroacetic acid. Cells were solubilized with 1 M NaOH and radioactivity was counted in a scintillation counter.

[5] = system: MCF-7 cells; experiment: MCF-7 breast cancer cell proliferation ([3H]thymidine incorporation); type: cell-based; conditions: % of the activity of 1α,25-(OH)2D3 at 50% of its activity (B50); human breast cancer cells
Description: as §1

[6] = target: T2, vitamin D receptor (Sus scrofa, UniProt A3RGC1); conditions: % of the activity of 1α,25-(OH)2D3 at 50% of its activity (B50); 1α,25-(OH)2D3 assigned 100%
T2 sequence (A3RGC1 1-427): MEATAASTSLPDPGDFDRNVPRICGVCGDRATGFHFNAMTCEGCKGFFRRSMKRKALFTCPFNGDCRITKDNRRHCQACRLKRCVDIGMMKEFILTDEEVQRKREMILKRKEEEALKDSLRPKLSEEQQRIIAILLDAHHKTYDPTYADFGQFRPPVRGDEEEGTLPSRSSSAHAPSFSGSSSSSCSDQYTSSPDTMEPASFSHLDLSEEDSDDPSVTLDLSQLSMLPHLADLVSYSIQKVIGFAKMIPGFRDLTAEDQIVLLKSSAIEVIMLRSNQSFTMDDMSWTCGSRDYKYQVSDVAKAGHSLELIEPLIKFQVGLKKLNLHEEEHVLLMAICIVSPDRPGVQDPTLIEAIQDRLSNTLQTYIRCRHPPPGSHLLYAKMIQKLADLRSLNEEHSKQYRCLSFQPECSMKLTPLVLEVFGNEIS

[7] = system: HL-60 cells; experiment: HL-60 cell differentiation (NBT reduction); type: cell-based; conditions: % of the activity of 1α,25-(OH)2D3 at 50% of its activity (B50); human leukemia cells
Description: as §1

[8] = system: spontaneously diabetic NOD mice; experiment: Prevention of autoimmune disease recurrence after syngeneic islet transplantation in diabetic NOD mice; type: in vivo; conditions: Nr 46 10 μg/kg/2d
Description: To evaluate the immune potential of the analogues the well known model of prevention of autoimmune disease recurrence in the spontaneously diabetic NOD mice was used. When syngeneic NOD islets are transplanted under the kidney capsule of spontaneously diabetic NOD mice, diabetes is only cured for some days, since in the absence of immunomodulatory treatment, the newly transplanted islets are destroyed within 14 days.

CC(CCCC(C)(C)O)C1CCC2C(=CC=C3CC(O)CC(O)C3)CCCC21C (stereo not drawn) [Compound 43]
Affinity for human DBP [1]: 7% | Ca serum chick [2]: 0.1% | Cell differentation/cell proliferation MG-63 [3]: 100% | Cell differentation/cell proliferation keratinocytes [4]: 100% | Cell differentation/cell proliferation MCF-7 [5]: 20% | Affinity for pig receptor [6]: 25% | Cell differentation/cell proliferation HL-60 [7]: 40%

C=C1C(=CC=CCC2(C)CCC(CCCC(O)(CC)CC)C2(C)C)CC(O)CC1O (stereo not drawn) [Compound 12]
Affinity for human DBP [1]: 5% | Ca serum chick [2]: <0.1% | Cell differentation/cell proliferation MG-63 [3]: 135% | Cell differentation/cell proliferation keratinocytes [4]: 100% | Cell differentation/cell proliferation MCF-7 [5]: 80% | Affinity for pig receptor [6]: 45% | Cell differentation/cell proliferation HL-60 [7]: 250%

CC1=C(/C=C\C2=CCC[C@](C)([C@H](C)[C@H](C)CC[C@@H](O)C(C)C)C2)C[C@@H](O)C[C@@H]1O [Compound 58]
Affinity for human DBP [1]: 1% | Ca serum chick [2]: <1% | Cell differentation/cell proliferation MG-63 [3]: 115% | Cell differentation/cell proliferation keratinocytes [4]: 1000% | Cell differentation/cell proliferation MCF-7 [5]: 700% | Affinity for pig receptor [6]: 3% | Cell differentation/cell proliferation HL-60 [7]: 650%

CC(CC#CC(C)(C)O)C1CCC2C(=CC=C3CC(O)CC(O)C3)CCCC21C (stereo not drawn) [Compound 44]
Affinity for human DBP [1]: 2% | Ca serum chick [2]: 0.1% | Cell differentation/cell proliferation MG-63 [3]: 150% | Cell differentation/cell proliferation keratinocytes [4]: 700% | Cell differentation/cell proliferation MCF-7 [5]: 1000% | Affinity for pig receptor [6]: 26% | Cell differentation/cell proliferation HL-60 [7]: 320%

CC(CC#CC(C)(C)O)C1CCC2C(=CC=C3CC(O)CC(O)C3)CCCC21C (stereo not drawn) [Compound 46]
Affinity for human DBP [1]: <0.5% | Ca serum chick [2]: 2% | Cell differentation/cell proliferation MG-63 [3]: 500% | Cell differentation/cell proliferation keratinocytes [4]: 1000% | Cell differentation/cell proliferation MCF-7 [5]: 1950% | Affinity for pig receptor [6]: 30% | Mean survival of islets and range [8]: 19 (6-51) d | Cell differentation/cell proliferation HL-60 [7]: 1650%

C=C1C(=CC=CCC2(C)CCC(CCCC(C)(C)O)C2(C)C)CC(O)CC1O (stereo not drawn) [Compound 11]
Affinity for human DBP [1]: 19% | Ca serum chick [2]: <0.1% | Cell differentation/cell proliferation MG-63 [3]: 35% | Cell differentation/cell proliferation keratinocytes [4]: 10% | Cell differentation/cell proliferation MCF-7 [5]: 30% | Affinity for pig receptor [6]: 8% | Cell differentation/cell proliferation HL-60 [7]: 30%

C=C1/C(=C\C=C2/CCC[C@](C)([C@H](C)[C@H](C)CC[C@H](O)C(C)C)C2)C[C@@H](O)C[C@@H]1O [Compound 4]
Affinity for human DBP [1]: 5% | Ca serum chick [2]: <1% | Cell differentation/cell proliferation MG-63 [3]: 100% | Cell differentation/cell proliferation keratinocytes [4]: 2000% | Cell differentation/cell proliferation MCF-7 [5]: 2000% | Affinity for pig receptor [6]: 60% | Cell differentation/cell proliferation HL-60 [7]: 500%

CCC(O)(C#CCC(C)C1CCC2C(=CC=C3CC(O)CC(O)C3)CCCC21C)CC (stereo not drawn) [Compound 48]
Affinity for human DBP [1]: 0.3% | Ca serum chick [2]: 1% | Cell differentation/cell proliferation MG-63 [3]: 800% | Cell differentation/cell proliferation keratinocytes [4]: 350% | Cell differentation/cell proliferation MCF-7 [5]: 1500% | Affinity for pig receptor [6]: 40% | Cell differentation/cell proliferation HL-60 [7]: 2200%
